Values joined by “and” are separate entries in the source; they are usually repeats but may differ in a detail not shown here. Equal values may be shown once. Where a name gives a salt, the structure may show the parent alone. Read-outs that look alike come from different tables or passages of the source.
Tests used:
[1] = biological target: T1, P450 reductase - CYP2C8.3 complex (Homo sapiens, UniProt P10632, K399R/R139K); settings: probe reaction of each substrate
T1 sequence (P10632 1-490 R139K/K399R): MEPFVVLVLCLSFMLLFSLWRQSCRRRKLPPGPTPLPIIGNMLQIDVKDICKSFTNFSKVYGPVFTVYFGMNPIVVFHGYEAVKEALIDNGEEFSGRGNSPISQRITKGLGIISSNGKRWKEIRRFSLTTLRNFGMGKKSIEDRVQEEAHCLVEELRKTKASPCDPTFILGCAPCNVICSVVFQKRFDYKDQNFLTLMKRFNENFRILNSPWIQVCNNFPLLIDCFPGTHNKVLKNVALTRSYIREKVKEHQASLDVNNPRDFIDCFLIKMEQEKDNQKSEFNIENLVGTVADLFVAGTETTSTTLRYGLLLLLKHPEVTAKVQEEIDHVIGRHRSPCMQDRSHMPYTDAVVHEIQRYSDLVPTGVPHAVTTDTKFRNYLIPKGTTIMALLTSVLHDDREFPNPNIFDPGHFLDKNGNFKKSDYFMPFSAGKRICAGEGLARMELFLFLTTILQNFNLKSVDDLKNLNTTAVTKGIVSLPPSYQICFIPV

[2] = biological target: T2, CYP2C8.3 (Homo sapiens, UniProt P10632, K399R/R139K); settings: ref [8], cited from earlier work; for Clint: kcat/Km
T2 sequence (P10632 1-490 R139K/K399R): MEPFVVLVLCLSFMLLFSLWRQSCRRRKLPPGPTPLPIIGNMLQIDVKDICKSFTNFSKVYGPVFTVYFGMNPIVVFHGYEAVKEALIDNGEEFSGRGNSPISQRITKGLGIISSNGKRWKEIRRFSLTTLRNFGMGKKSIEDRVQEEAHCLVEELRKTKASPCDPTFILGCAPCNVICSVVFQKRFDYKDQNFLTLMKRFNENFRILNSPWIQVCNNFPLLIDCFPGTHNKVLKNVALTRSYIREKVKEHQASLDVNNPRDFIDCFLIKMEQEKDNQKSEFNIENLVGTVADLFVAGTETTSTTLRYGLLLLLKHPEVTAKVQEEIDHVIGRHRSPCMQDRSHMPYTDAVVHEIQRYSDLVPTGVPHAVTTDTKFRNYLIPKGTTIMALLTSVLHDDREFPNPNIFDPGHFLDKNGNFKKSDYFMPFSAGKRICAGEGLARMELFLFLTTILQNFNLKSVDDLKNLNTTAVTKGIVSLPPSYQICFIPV

[3] = biological target: T2, CYP2C8.3; test: Equilibrium spectral binding of ligands and redox cofactors to purified CYP2C8.3; settings: for % change in Bmax, first binding event / % change in Bmax, second binding event / % change in Bmax, redox partner binding: CYP2C8.3 in comparison to CYP2C8.1; for Kd: read-out: KD of redox partner, spectral binding of redox partner to CYP2C8.3
[4] = system: CYP2C8; settings: excess of cytochrome b5 (up to 10:1)
[5] = biological target: T3, CYP2C8.1 (Homo sapiens, UniProt P10632); settings: ref [8], cited from earlier work; for Clint: kcat/Km
T3 sequence (P10632 1-490): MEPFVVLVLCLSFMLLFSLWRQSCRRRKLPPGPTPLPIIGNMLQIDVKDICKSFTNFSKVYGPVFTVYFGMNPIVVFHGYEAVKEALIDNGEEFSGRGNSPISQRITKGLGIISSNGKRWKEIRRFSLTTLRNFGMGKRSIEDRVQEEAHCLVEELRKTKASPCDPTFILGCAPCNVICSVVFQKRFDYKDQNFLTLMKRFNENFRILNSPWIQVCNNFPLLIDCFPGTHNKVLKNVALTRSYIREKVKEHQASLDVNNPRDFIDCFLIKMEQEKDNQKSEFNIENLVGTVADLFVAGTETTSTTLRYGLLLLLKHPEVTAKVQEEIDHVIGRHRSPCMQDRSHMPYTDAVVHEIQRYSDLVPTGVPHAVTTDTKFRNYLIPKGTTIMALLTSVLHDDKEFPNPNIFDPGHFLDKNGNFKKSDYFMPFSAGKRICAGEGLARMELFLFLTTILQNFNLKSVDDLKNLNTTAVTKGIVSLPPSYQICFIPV

[6] = biological target: T2, CYP2C8.3
[7] = biological target: T2, CYP2C8.3; settings: absence of cytochrome b5 in the reconstitution system; CPR:CYP2C8 2:1
[8] = biological target: T3, CYP2C8.1; settings: for Clint: kcat/Km
[9] = biological target: T2, CYP2C8.3; settings: for Clint: kcat/Km
[10] = substrate: CCN(CC)Cc1cc(Nc2ccnc3cc(Cl)ccc23)ccc1O
[11] = substrate: CN(CCOc1ccc(CC2SC(=O)NC2=O)cc1)c1ccccn1
[12] = substrate: CC(=O)O[C@H]1C(=O)[C@@]2(C)[C@H]([C@H](OC(=O)c3ccccc3)[C@]3(O)C[C@H](OC(=O)[C@H](O)[C@@H](NC(=O)c4ccccc4)c4ccccc4)C(C)=C1C3(C)C)[C@]1(OC(C)=O)CO[C@@H]1C[C@@H]2O
[13] = substrate: CCN(CC)Cc1cc(Nc2ccnc3cc(Cl)ccc23)ccc1O; remark: listed apart in the source
[14] = substrate: CN(CCOc1ccc(CC2SC(=O)NC2=O)cc1)c1ccccn1; remark: listed apart in the source
[15] = biological target: T3, CYP2C8.1; test: Equilibrium spectral binding of ligands and redox cofactors to purified CYP2C8.1; settings: read-out: KD of redox partner; spectral binding of redox partner to CYP2C8.1
[16] = CER hydroxylation (M23 formation)

COCc1c(C(C)C)nc(C(C)C)c(/C=C/[C@@H](O)C[C@@H](O)CC(=O)O)c1-c1ccc(F)cc1 [CER, (3R,5S,6E)-7-[4-(4-Fluorophenyl)-5-(methoxymethyl)-2,6-bis(1-methylethyl)-3-pyridinyl]-3,5-dihydroxy-6-heptenoic Acid Sodium Salt]
decrease of Km, red of CYP2C8.3 in comparison to CYP2C8.1 [1]: did not vary | Clint ([2]; CER O-demethylation): 0.11 µM⁻¹ min⁻¹ | Km ([2]; CER O-demethylation): 13 ± 2 µM | kcat ([2]; CER O-demethylation): 1.47 ± 0.06 (**) nmol nmol P450^−1 min^−1 | Km [2, 16]: 13 ± 2 µM | kcat [2, 16]: 0.61 ± 0.03 (**) nmol nmol P450^−1 min^−1 | Clint ([2]; CER hydroxylation): 0.047 µM⁻¹ min⁻¹ | % change in Bmax, first binding event [3]: +45% | % change in Bmax, second binding event [3]: +533% | inhibition of CYP-activity by cytochrome b5 [4]: less evident | Clint ([5]; CER O-demethylation): 0.024 µM⁻¹ min⁻¹ | Km ([5]; CER O-demethylation): 24 ± 3 µM | kcat ([5]; CER O-demethylation): 0.57 ± 0.02 nmol nmol P450^−1 min^−1 | Km [5, 16]: 23 ± 2 µM | kcat [5, 16]: 0.22 ± 0.01 nmol nmol P450^−1 min^−1 | Clint ([5]; CER hydroxylation): 0.0096 µM⁻¹ min⁻¹

CC(=O)O[C@H]1C(=O)[C@@]2(C)[C@H]([C@H](OC(=O)c3ccccc3)[C@]3(O)C[C@H](OC(=O)[C@H](O)[C@@H](NC(=O)c4ccccc4)c4ccccc4)C(C)=C1C3(C)C)[C@]1(OC(C)=O)CO[C@@H]1C[C@@H]2O [PAC, paclitaxel]
decrease of Km, red of CYP2C8.3 in comparison to CYP2C8.1 [1]: ~7 fold | Ki [6]: 103000 nM | activity of CYP2C8.3 compared to CYP2C8.1 [7]: less active | % change in Bmax, first binding event [3]: +79% | % change in Bmax, second binding event [3]: −14% | substrate inhibition ([8]; CYP2C8.1): negligible | inhibition of CYP-activity by cytochrome b5 [4]: strong inhibition | fold higher Clint (kcat/Km) for CYP2C8.3 compared to CYP2C8.1 ([9]; DEAQ formation, p-hydroxy and N-de-methyl RG, PAC 6α-hydroxylation): 1.5 fold | Clint ([9]; PAC 6α-hydroxylation): 0.16 µM⁻¹ min⁻¹

CN(CCOc1ccc(CC2SC(=O)NC2=O)cc1)c1ccccn1 (centres unmarked) [RG, rosiglitazone]
Ki [6]: 150000 nM | Clint ([8]; RG N-de-methylation): 0.13 µM⁻¹ min⁻¹ | Clint ([8]; RG p-hydroxylation): 0.11 µM⁻¹ min⁻¹ | Clint ([9]; RG N-de-methylation): 0.33 µM⁻¹ min⁻¹ | Clint ([9]; RG p-hydroxylation): 0.29 µM⁻¹ min⁻¹

B1: CYP2C8.1 (Homo sapiens) (protein)
chain: MEPFVVLVLCLSFMLLFSLWRQSCRRRKLPPGPTPLPIIGNMLQIDVKDICKSFTNFSKVYGPVFTVYFGMNPIVVFHGYEAVKEALIDNGEEFSGRGNSPISQRITKGLGIISSNGKRWKEIRRFSLTTLRNFGMGKRSIEDRVQEEAHCLVEELRKTKASPCDPTFILGCAPCNVICSVVFQKRFDYKDQNFLTLMKRFNENFRILNSPWIQVCNNFPLLIDCFPGTHNKVLKNVALTRSYIREKVKEHQASLDVNNPRDFIDCFLIKMEQEKDNQKSEFNIENLVGTVADLFVAGTETTSTTLRYGLLLLLKHPEVTAKVQEEIDHVIGRHRSPCMQDRSHMPYTDAVVHEIQRYSDLVPTGVPHAVTTDTKFRNYLIPKGTTIMALLTSVLHDDKEFPNPNIFDPGHFLDKNGNFKKSDYFMPFSAGKRICAGEGLARMELFLFLTTILQNFNLKSVDDLKNLNTTAVTKGIVSLPPSYQICFIPV
Km [10]: 3.0 ± 0.4 µM | kcat [10]: 0.095 ± 0.00333 s⁻¹ | kcat/Km [10]: 31700 M⁻¹ s⁻¹ | Km [11]: 4.0 ± 0.8 µM and 2.9 ± 0.6 µM | Km [12]: 3.7 ± 0.6 µM | kcat [12]: 0.00483 s⁻¹ | kcat/Km [12]: 1830 M⁻¹ s⁻¹

B2: CYP2C8.3 (Homo sapiens; K399R/R139K) (protein)
chain: MEPFVVLVLCLSFMLLFSLWRQSCRRRKLPPGPTPLPIIGNMLQIDVKDICKSFTNFSKVYGPVFTVYFGMNPIVVFHGYEAVKEALIDNGEEFSGRGNSPISQRITKGLGIISSNGKRWKEIRRFSLTTLRNFGMGKKSIEDRVQEEAHCLVEELRKTKASPCDPTFILGCAPCNVICSVVFQKRFDYKDQNFLTLMKRFNENFRILNSPWIQVCNNFPLLIDCFPGTHNKVLKNVALTRSYIREKVKEHQASLDVNNPRDFIDCFLIKMEQEKDNQKSEFNIENLVGTVADLFVAGTETTSTTLRYGLLLLLKHPEVTAKVQEEIDHVIGRHRSPCMQDRSHMPYTDAVVHEIQRYSDLVPTGVPHAVTTDTKFRNYLIPKGTTIMALLTSVLHDDREFPNPNIFDPGHFLDKNGNFKKSDYFMPFSAGKRICAGEGLARMELFLFLTTILQNFNLKSVDDLKNLNTTAVTKGIVSLPPSYQICFIPV
Km [13]: 7.5 ± 0.5 µM | kcat [13]: 0.497 ± 0.0117 s⁻¹ | kcat/Km [13]: 66700 M⁻¹ s⁻¹ | Km [14]: 10.2 ± 0.9 µM and 8.0 ± 0.6 µM | Km [12]: 4.7 ± 0.7 (−) µM | kcat [12]: 0.0127 s⁻¹ | kcat/Km [12]: 2670 M⁻¹ s⁻¹

B3: CPR: Rat cytochrome P450 reductase, expressed; redox partner of CYP2C8 (protein, UniProt P00388 2-678, looked up)
NADPH--cytochrome P450 …: GDSHEDTSATMPEAVAEEVSLFSTTDMVLFSLIVGVLTYWFIFRKKKEEIPEFSKIQTTAPPVKESSFVEKMKKTGRNIIVFYGSQTGTAEEFANRLSKDAHRYGMRGMSADPEEYDLADLSSLPEIDKSLVVFCMATYGEGDPTDNAQDFYDWLQETDVDLTGVKFAVFGLGNKTYEHFNAMGKYVDQRLEQLGAQRIFELGLGDDDGNLEEDFITWREQFWPAVCEFFGVEATGEESSIRQYELVVHEDMDVAKVYTGEMGRLKSYENQKPPFDAKNPFLAAVTANRKLNQGTERHLMHLELDISDSKIRYESGDHVAVYPANDSALVNQIGEILGADLDVIMSLNNLDEESNKKHPFPCPTTYRTALTYYLDITNPPRTNVLYELAQYASEPSEQEHLHKMASSSGEGKELYLSWVVEARRHILAILQDYPSLRPPIDHLCELLPRLQARYYSIASSSKVHPNSVHICAVAVEYEAKSGRVNKGVATSWLRAKEPAGENGGRALVPMFVRKSQFRLPFKSTTPVIMVGPGTGIAPFMGFIQERAWLREQGKEVGETLLYYGCRRSDEDYLYREELARFHKDGALTQLNVAFSREQAHKVYVQHLLKRDREHLWKLIHEGGAHIYVCGDARNMAKDVQNTFYDIVAEFGPMEHTQAVDYVKKLMTKGRYSLDVWS
Kd [15]: 29.4 ± 0.2 nM | % change in Bmax, redox partner binding [3]: +76% | Kd [3]: 20.7 ± 0.2 nM

B4: Cytochrome b5: expressed cytochrome b5; redox partner of CYP2C8 (protein, UniProt P00167 2-134, looked up)
Cytochrome b5: AEQSDEAVKYYTLEEIQKHNHSKSTWLILHHKVYDLTKFLEEHPGGEEVLREQAGGDATENFEDVGHSTDAREMSKTFIIGELHPDDRPKLNKPPETLITTIDSSSSWWTNWVIPAISAVAVALMYRLYMAED
Kd [15]: 34.4 ± 0.4 nM | % change in Bmax, redox partner binding [3]: +298% | Kd [3]: 16.8 ± 0.3 nM
